Assays:
[1] = Apparent permeability in MDCK-MDR1 cells; format: ADME, cell-based, Canis lupus familiaris; conditions: dog
[2] = Inhibition of calcium channel (unknown origin); set-up: species or system Homo sapiens
Beta-secretase 1 = Beta-secretase 1 (Homo sapiens, UniProt P56817); assay: Inhibition of BACE1 (unknown origin)
[3] = Efflux ratio of apparent permeability in MDCK-MDR1 cells; format: ADME, cell-based, Canis lupus familiaris; conditions: dog
[4] = target: Voltage-gated inwardly rectifying potassium channel KCNH2 (Homo sapiens, UniProt Q12809); assay: Inhibition of hERG; format: toxicity
[5] = Dissociation constant, pKa of the compound by potentiometric titration method; format: physicochemical
[6] = Inhibition of sodium channel (unknown origin); set-up: species or system Homo sapiens

Beta-secretase 1, sequence (P56817 whole entry): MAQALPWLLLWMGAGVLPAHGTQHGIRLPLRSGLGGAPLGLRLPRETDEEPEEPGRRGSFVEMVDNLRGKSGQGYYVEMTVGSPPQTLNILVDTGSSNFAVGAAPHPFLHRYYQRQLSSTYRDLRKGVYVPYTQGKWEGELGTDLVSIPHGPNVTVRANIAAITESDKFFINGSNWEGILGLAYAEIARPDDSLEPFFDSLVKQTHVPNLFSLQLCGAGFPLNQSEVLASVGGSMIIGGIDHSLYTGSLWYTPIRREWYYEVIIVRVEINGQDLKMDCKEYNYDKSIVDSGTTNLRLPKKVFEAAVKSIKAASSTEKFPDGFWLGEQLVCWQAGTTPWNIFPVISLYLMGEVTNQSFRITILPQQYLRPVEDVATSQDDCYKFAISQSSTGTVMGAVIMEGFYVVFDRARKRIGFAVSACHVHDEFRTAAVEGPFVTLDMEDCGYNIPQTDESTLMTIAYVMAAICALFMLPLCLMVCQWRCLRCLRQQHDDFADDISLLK
Voltage-gated inwardly rectifying potassium channel KCNH2, sequence (Q12809 whole entry): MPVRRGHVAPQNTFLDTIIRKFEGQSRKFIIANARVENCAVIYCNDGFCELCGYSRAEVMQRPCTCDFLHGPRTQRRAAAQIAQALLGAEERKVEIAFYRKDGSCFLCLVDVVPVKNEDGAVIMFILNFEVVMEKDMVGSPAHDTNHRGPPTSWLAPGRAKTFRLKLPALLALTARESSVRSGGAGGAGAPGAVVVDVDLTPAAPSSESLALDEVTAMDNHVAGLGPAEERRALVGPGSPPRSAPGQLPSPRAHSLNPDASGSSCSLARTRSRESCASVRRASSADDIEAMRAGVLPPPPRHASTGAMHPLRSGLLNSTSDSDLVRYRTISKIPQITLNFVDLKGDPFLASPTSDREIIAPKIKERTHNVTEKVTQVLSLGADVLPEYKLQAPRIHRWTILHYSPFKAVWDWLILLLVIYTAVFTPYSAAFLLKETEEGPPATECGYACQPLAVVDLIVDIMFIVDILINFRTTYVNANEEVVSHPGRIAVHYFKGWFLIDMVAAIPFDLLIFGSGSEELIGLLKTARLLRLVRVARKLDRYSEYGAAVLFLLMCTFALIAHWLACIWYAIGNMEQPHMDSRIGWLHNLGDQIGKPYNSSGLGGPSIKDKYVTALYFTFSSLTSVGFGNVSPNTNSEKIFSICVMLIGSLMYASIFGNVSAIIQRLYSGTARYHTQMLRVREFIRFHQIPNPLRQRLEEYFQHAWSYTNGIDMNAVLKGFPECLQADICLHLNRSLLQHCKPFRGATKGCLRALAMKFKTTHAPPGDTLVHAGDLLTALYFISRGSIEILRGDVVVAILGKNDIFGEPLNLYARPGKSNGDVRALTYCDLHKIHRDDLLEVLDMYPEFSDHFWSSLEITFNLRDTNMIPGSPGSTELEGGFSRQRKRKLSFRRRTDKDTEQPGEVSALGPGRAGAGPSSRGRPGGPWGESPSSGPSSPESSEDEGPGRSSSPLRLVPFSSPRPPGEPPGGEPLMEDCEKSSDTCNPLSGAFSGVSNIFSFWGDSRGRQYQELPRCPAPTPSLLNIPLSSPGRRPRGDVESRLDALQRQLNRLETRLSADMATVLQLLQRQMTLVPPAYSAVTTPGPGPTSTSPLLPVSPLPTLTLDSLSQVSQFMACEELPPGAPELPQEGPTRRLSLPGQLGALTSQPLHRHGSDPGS

| SMILES | Papp [1] [×10⁻⁶ cm/s] | IC50 [2] [nM] | IC50 (Beta-secretase 1) [nM] | efflux ratio [3] | pKa [5] | IC50 [6] [nM] | IC50 [4] [nM] |
| --- | --- | --- | --- | --- | --- | --- | --- |
| COc1cnc(-c2ccc(F)c([C@]3(C(F)F)CC[C@@](C)(C#N)C(N)=N3)c2)cn1 | 54 | > 10000 | 12 | 15 | 6 | > 10000 | > 10000 |
| C[C@@]1(S(C)(=O)=O)CC[C@@](CF)(c2cc(NC(=O)c3cnc(OCF)cn3)ccc2F)N=C1N |  | > 10000 |  |  |  | 8510 |  |
| C[C@@]1(c2nc(-c3ccc(F)cn3)cs2)CC[C@@](C)(S(C)(=O)=O)C(N)=N1 | 37 |  | 25 | 22 | 7 |  |  |
| CN(C)C(=O)[C@]1(C)CC[C@@](CF)(c2cc(-c3ccc(F)cn3)ccc2F)N=C1N | 2.7 | > 10000 | 66 | 52 | 9.2 | > 10000 | 8320 |
| COc1cnc(-c2ccc(F)c([C@]3(CF)CC[C@](C)(C#N)C(N)=N3)c2)cn1 |  | > 10000 | 851 |  |  | > 10000 |  |
| C[C@@]1(c2cc(NC(=O)c3ccc(F)cn3)ccc2F)CC[C@@](CF)(S(C)(=O)=O)C(N)=N1 |  | > 10000 | 15 |  |  | 6460 |  |
| COc1cnc(-c2ccc(F)c([C@]3(CF)CC[C@@](C)(C#N)C(N)=N3)c2)cn1 |  | > 10000 | 54 |  |  | > 10000 |  |
| C[C@@]1(S(C)(=O)=O)CC[C@@](CF)(c2nc(-c3cnc(OCF)cn3)ccc2F)N=C1N |  |  | 38 |  | 7.6 |  |  |
| C[C@@]1(c2cc(-c3ccc(Cl)cn3)ccc2F)C[C@@H]2C[C@@H]2C(N)=N1 |  |  | 96 |  | > 11 |  |  |
| COc1cnc(C(=O)Nc2ccc(F)c([C@@]3(C)N=C(N)[C@](C)(S(C)(=O)=O)C[C@@H]3F)c2)cn1 |  | > 10000 |  |  |  | > 10000 |  |

More lines, main results first:

| Papp [1] [×10⁻⁶ cm/s] | IC50 [2] [nM] | IC50 (Beta-secretase 1) [nM] | efflux ratio [3] | pKa [5] | IC50 [6] [nM] | SMILES | IC50 [4] [nM] |
| --- | --- | --- | --- | --- | --- | --- | --- |
|  | < 100 | 5.9 |  | 7.4 | 170 | C[C@@]1(c2cc(-c3cc4c(cn3)OC(F)(F)O4)ccc2F)CC[C@@](C)(S(=O)(=O)C(F)(F)F)C(N)=N1 | > 10000 |
|  | > 10000 | 12 |  |  | > 10000 | C[C@@]1(c2cc(-c3cnc(OCF)cn3)ccc2F)CCC(F)(F)C(N)=N1 |  |
|  | 6610 | 9.8 |  |  | 4900 | COc1cnc(-c2ccc(F)c([C@]3(C)CC[C@@](C)(C#N)C(N)=N3)c2)cn1 |  |
|  | > 10000 | 4 |  |  | 2140 | CN(C)S(=O)(=O)[C@]1(C)CC[C@@](CF)(c2cc(-c3ccc(F)cn3)ccc2F)N=C1N |  |
|  |  | 31 |  | > 11 |  | C[C@@]1(c2cc(-c3ccc(Cl)cn3)ccc2F)CCC2(CC2)C(N)=N1 |  |
|  | > 10000 | 4 |  |  | 8710 | COc1cnc(-c2ccc(F)c([C@]3(C)CC[C@@](C)(S(C)(=O)=O)C(N)=N3)c2)cn1 |  |
|  | > 10000 | 8.9 |  |  | > 10000 | NC1=N[C@](CF)(c2cc(-c3cnc(OCF)cn3)ccc2F)CCC1(F)F |  |
|  | 1950 | 59 |  |  | 650 | CC1CC[C@@](CF)(c2cc(-c3cc4c(cn3)OC(F)(F)O4)ccc2F)N=C1N (stereo not given in full) |  |
